Assay type in all cases: cell-based, human
Test [1] relates to TROP2 positive NCI-H292, NCI-H441 cells and TROP2 negative NCI-H460 and NCI-H1703 cells. In words: Cell proliferation (cell killing) assay, cell line panel. The following applies: all TROP2 positive and negative cell lines tested. The protocol:
(§1) The cytotoxicity of the ADCs, iSACs and iADCs was measured in a cell proliferation assay. TROP2 positive NCI-H292, NCI-H441 cells and TROP2 negative NCI-H460 and NCI-H1703 cells were obtained from ATCC (American Type Culture Collection) and maintained in DMEM/F12 (1:1), high glucose (Corning) supplemented with 10% heat-inactivated fetal bovine serum (Thermo Scientific), 2 mM glutamax (Thermo Scientific), and 1× Penicillin/Streptomycin (Corning).
(§2) Cells were collected and counted by the Vi-CELL Cell Viability Analyzers (Beckman Coulter). A total of 7500 cells in a volume of 50 uL were seeded in each well of a 96-well flat bottom white Polystyrene plate. Test articles were diluted at 2× final concentration in the cell culture medium and 50 uL was added into each treatment well. Assay plates were cultured at 37° C. in a CO2 incubator for 120 hours. For cell viability measurement, 60 μL of Cell Titer-Glo® reagent (Promega Corp. Madison, WI) was added into each well, and plates were processed as per product instructions. Relative luminescence was measured on an ENVISION® plate reader (Perkin-Elmer; Waltham, MA). Relative luminescence readings were converted to % viability using untreated cells as controls. Data was fitted with non-linear regression analysis, using log(inhibitor) vs. response-variable slope, 4 parameter fit equation using GraphPad Prism (GraphPad v 5.00, Software; San Diego, CA).

A further test deals with NCI-H1703 (Trop2-). The test is described as follows: Cell proliferation (cell killing) assay, Cell Titer-Glo, 120 hours. The following applies: for EC50: Homo sapiens. The method, then: as §1, §2
The test system of another test is NCI-H460 (Trop2-). The test is described as above. The following applies: for EC50: Homo sapiens. The method, then: as §1, §2
Another test concerns NCI-H441 (Trop2+). The description is as above. The following applies: for EC50: Homo sapiens. The method, then: as §1, §2
The next test relates to NCI-H292 (Trop2+). The test is described as above. The following applies: for EC50: Homo sapiens. The method, then: as §1, §2
Test [2] relates to NCI-H292 cells. The test is described as follows: IP-10 and IL-6 release from TROP2 positive NCI-H292 cells, 120 hours (MSD). The following applies: for EC50: Homo sapiens. The protocol:
The cell supernatant was collected and IP-10 and IL-6 released in the cell culture medium was measured using Streptavidin single spot 96 well plates, compatible human antibody pairs, and calibrating solutions commercially available from MesoScale Discovery. Raw data generated by the Meso Scale Discovery (MSD®) SQ120 plate reader was imported into MSD Discovery Workbench software. Unknown sample values were interpolated from standard curves by the software and imported into Graphpad Prism. Each cytokine level was fitted with non-linear regression analysis, using log(agonist) vs. response, variable slope, 4-parameter fit equation in GraphPad Prism.

For test [3], the system named is NCI-H292 cells. The test is described as follows: Immunogenic cell death: HMGB1 release in supernatant (sandwich ELISA), 48 hours. The following applies: for HMGB-1 Release Span: supernatant. The method, then:
(§3) Immunogenic cell death elicited by the TROP2 ADC, iSAC, iADCs and exatecan were measured by cell surface translocate of calreticulin and release of HMGB1 in the cell culture supernatant. Briefly, TROP2 positive cell line NCI-H292 were seeded into a 96-well flat bottom plate 4 hours prior to the initialization of the assay. Test articles were formulated at a 2× starting concentration in cell culture medium, and samples were serial diluted (1:3) under sterile conditions and added onto the cells in duplicates. After incubation at 37° C. in a CO2 incubator for 48 hours, the cell supernatant was collected for measuring HMGB1 and the adherent cells were collected for calreticulin expression on the cell surface.
HMGB1 released in the supernatant was assessed via sandwich ELISA using mouse anti-human HMGB1 clone 2F6 (Sigma-Aldrich) as the capture, polyclonal rabbit anti-human HMGB1 (Abcam) as secondary, and polyclonal goat anti-rabbit IgG HRP as the detection antibody. The HMGB1 concentrations in the cell culture medium were calculated based a standard curve built on commercially available recombinant human HMGB1 (R&D Systems).

The test system of test [4] is NCI-H292 cells. The test is described as follows: Immunogenic cell death: cell surface calreticulin (CALR) on live cells (flow cytometry), 48 hours. The following applies: NCI-H292 cells. The method, then: as §3
NCI-H292 cells were detached using Accutase (Innovative Cell Technologies) and viability was accessed using a 1:500 dilution of Zombie NIR viability dye. […] Surface calreticulin measures on the live cells were gathered using an Attune NXT Flow Cytometer (ThermoFisher Scientific) to obtain median fluorescence intensity values. All data were fitted with non-linear regression analysis, using log(agonist) vs. response, variable slope, 4 parameter fit equation using GraphPad Prism.

Setting [5] is: NCI-H292 cells, read-out: IL-6 induction EC50.
The mark [6] stands for this setting: NCI-H292 cells, read-out: IP-10 induction EC50.
The mark [7] stands for this setting: TROP2 positive NCI-H292 cells, read-out: IL-6 Release EC50.
Setting [8] is: TROP2 positive NCI-H292 cells, read-out: IP-10 Release EC50.

Read-outs that look alike come from different tables or passages of the source.

For `CCn1nc(C)cc1C(=O)Nc1nc2cc(C(N)=O)cc(OC)c2n1C/C=C/Cn1c(NC(=O)c2cc(C)nn2CC)nc2cc(C(N)=O)cc(OCCCN3CCC(c4nnc5n4CCNC5)CC3)c21` [Compound S-3, 1-[(E)-4-[5-Carbamoyl-2-[(2-ethyl-5-methyl-pyrazole-3-carbonyl)amino]-7-[3-[4-(5,6,7,8-tetrahydro-[1,2,4]triazolo[4,3-a]pyrazin-3-yl)-1-piperidyl]propoxy]benzimidazol-1-yl]but-2-enyl]-2-[(2-ethyl-5-methyl-pyrazole-3-carbonyl)amino]-7-methoxy-benzimidazole-5-carboxamide], the “cell killing (in words)” value in test [1] is recorded as “did not result in significant cell killing”. The Span cell killing in the test on NCI-H1703 (Trop2-), in the test with NCI-H460 (Trop2-), in the test with NCI-H441 (Trop2+) and in the test with NCI-H292 (Trop2+) was less than 15% throughout. Besides, the 50% effective concentration (EC50) in the test with NCI-H1703 (Trop2-), in the test on NCI-H460 (Trop2-), with NCI-H441 (Trop2+), in the test with NCI-H292 (Trop2+), in the test with NCI-H292 cells [2] (setting [5]) and in the test on NCI-H292 cells [2] (setting [6]) was greater than 100 nM throughout. Moreover, the EC50 with NCI-H292 cells [2] (setting [7]) and in the test with NCI-H292 cells [2] (setting [8]) was greater than 100 nM in each case. Moreover, in the test with NCI-H292 cells [2] (TROP2 positive NCI-H292 cells), the “IL-6 Release Span” value is on record as greater than 8000 pg/mL. For the same compound, the “IP-10 Release Span” value in the test on NCI-H292 cells [2] (TROP2 positive NCI-H292 cells) is listed as greater than 4000 pg/mL. Also, the “release of HMGB1 into the cell culture supernatant” value with NCI-H292 cells [3] came out at 30 ng/mL. In addition, the “HMGB-1 Release Span” value in the test with NCI-H292 cells [3] stood at 11 ng/mL. Further, in the test with NCI-H292 cells [4], the “induction of CALR on live cells compared to untreated cells” value is “no induction of CALR”.
For `CCn1nc(C)cc1C(=O)Nc1nc2cc(C(N)=O)ccc2n1C/C=C/Cn1c(NC(=O)c2cc(C)nn2CC)nc2cc(C(N)=O)cc(OCCCN3CC4(CNCCO4)C3)c21` [Compound S-1], in test [1], the “cell killing (in words)” value is “did not result in significant cell killing”. The Span cell killing with NCI-H1703 (Trop2-), with NCI-H460 (Trop2-), with NCI-H441 (Trop2+) and with NCI-H292 (Trop2+) was less than 15% throughout. Moreover, the EC50 with NCI-H1703 (Trop2-), in the test with NCI-H460 (Trop2-), in the test on NCI-H441 (Trop2+), in the test with NCI-H292 (Trop2+), in the test with NCI-H292 cells [2] (setting [5]) and in the test on NCI-H292 cells [2] (setting [6]) was greater than 100 nM throughout. The EC50 with NCI-H292 cells [2] (setting [7]) and in the test with NCI-H292 cells [2] (setting [8]) was greater than 100 nM throughout. In the test with NCI-H292 cells [2] (TROP2 positive NCI-H292 cells), the “IL-6 Release Span” value is greater than 10000 pg/mL. The “IP-10 Release Span” value with NCI-H292 cells [2] (TROP2 positive NCI-H292 cells) is reported as greater than 4000 pg/mL. Moreover, the “release of HMGB1 into the cell culture supernatant” value in the test with NCI-H292 cells [3] is 30 ng/mL. Moreover, the “HMGB-1 Release Span” value with NCI-H292 cells [3] amounted to 17 ng/mL. For the same compound, the “induction of CALR on live cells compared to untreated cells” value in the test on NCI-H292 cells [4] is “no induction of CALR”.

These data come from US20260053942A1, “STING AGONIST IMMUNOSTIMULATORY ANTIBODY DRUG CONJUGATES” (ASTELLAS PHARAMA INC., priority 2024, published 2026).
